In patent publication US11718622B2, “Heterocyclic adenosine receptor antagonists” (Exelixis, Inc., priority 2020, dated 2023):

What was measured:
[1] = target: Adenosine A2a (ADORA2A) receptor (Homo sapiens (Human), UniProt P29274); test: ADORA2A Receptor Binding Assay; conditions: radioligand binding, membrane stock
Description: ADORA1A and ADORA2A Receptor Binding Assay
2 μL of each compound (test compounds, high control compound, low control compound) was transferred into individual wells of an assay plate. Also to each individual well, 98 μL of Adenosine A1a membrane stock (for ADORA1A Receptor Binding Assay) or Adenosine A2a membrane stock (for ADORA2A Receptor Binding Assay) was dispensed, followed by 100 μL of radio-labeled ligand. Plates were then sealed, and incubated at room temperature for 1 hour (for ADORA1A Receptor Binding Assay) or 2 hours (for ADORA2A Receptor Binding Assay). Unifilter-96 GF/C filter plates were pre-soaked with 50 μL of 0.3% PEI per well for at least 30 min at room temperature. When binding assays were completed, reaction mixtures were filtered through GF/C plates using a Perkin Elmer Filtermate Harvester, and then each plate was washed 4× with cold wash buffer. Filter plates were then dried for 1 hour at 50° C. After drying, the bottom of the filter plate wells was sealed using Perkin Elmer Unifilter-96 backing seal tape. 50 μL of Perkin Elmer Microscint 20 cocktail was then added, and the top of the filter plate was then sealed using Perkin Elmer TopSeal-A sealing film. ^3H trapped on the filter was counted using a Perkin Elmer MicroBeta2 Reader. Data analysis was performed using GraphPad Prism 5 software, and the “Inhibition [% Control]” was calculated using the following equation: % Inh=(1−Background subtracted Assay value/Background subtracted HC value)*100.

[2] = target: Adenosine A2B (ADORA2B) receptor (Homo sapiens (Human), UniProt P29275); test: ADORA2B Receptor Binding Assay; conditions: radioligand binding, membrane stock
Description: ADORA2B Receptor Binding Assay
100 μL of Adenosine A2B membrane stock was dispensed into individual wells of an assay plate. 1 μL of each compound (test compounds, high control compound, low control compound) was then transferred into individual wells, followed by 100 μL of radio-labeled ligand. Plates were then sealed, and incubated at room temperature for 1 hour. Unifilter-96 GF/C filter plates were pre-soaked with 50 μL of 0.5% BSA per well for at least 30 min at room temperature. When binding assays were completed, reaction mixtures were filtered through GF/C plates using a Perkin Elmer Filtermate Harvester, and then each plate was washed 4× with cold wash buffer. Filter plates were then dried for 1 hour at 50° C. After drying, the bottom of the filter plate wells was sealed using Perkin Elmer Unifilter-96 backing seal tape. 50 μL of Perkin Elmer Microscint 20 cocktail was then added, and the top of the filter plate was then sealed using Perkin Elmer TopSeal-A sealing film. ^3H trapped on the filter was counted using a Perkin Elmer MicroBeta2 Reader. Data analysis was performed using GraphPad Prism 5 software, and the “Inhibition[% Control]” was calculated using the following equation: % Inh=(1−Background subtracted Assay value/Background subtracted HC value)*100.

Sequence of Adenosine A2B (ADORA2B) receptor (P29275 whole entry): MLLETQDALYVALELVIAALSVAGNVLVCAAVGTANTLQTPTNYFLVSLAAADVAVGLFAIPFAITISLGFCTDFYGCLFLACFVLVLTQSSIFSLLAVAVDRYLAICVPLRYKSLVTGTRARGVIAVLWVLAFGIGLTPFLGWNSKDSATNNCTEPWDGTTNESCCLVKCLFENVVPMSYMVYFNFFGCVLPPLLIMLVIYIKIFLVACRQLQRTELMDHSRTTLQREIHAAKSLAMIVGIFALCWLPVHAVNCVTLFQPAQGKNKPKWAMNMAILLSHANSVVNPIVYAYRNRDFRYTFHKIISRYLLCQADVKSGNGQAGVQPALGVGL
Sequence of Adenosine A2a (ADORA2A) receptor (P29274 whole entry): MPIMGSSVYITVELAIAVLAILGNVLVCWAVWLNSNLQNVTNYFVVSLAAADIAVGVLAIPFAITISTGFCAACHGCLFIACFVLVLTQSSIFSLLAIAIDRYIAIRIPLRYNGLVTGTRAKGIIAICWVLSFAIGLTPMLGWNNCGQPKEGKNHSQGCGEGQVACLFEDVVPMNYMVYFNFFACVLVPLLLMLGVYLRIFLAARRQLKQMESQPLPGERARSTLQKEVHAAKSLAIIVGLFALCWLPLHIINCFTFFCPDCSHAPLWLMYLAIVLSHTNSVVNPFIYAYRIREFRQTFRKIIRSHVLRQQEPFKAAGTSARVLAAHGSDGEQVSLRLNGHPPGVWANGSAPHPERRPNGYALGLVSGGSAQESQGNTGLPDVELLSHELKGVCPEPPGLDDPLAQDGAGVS

SMILES | IC50 [1] | IC50 [2]
CC(=O)Nc1cc2nc(C3CCC3)nn2c(-c2ccc(C)o2)n1 [Compound 63, N-[2-cyclobutyl-5-(5-methylfuran-2-yl)-[1,2,4]triazolo[1,5-c]pyrimidin-7-yl]acetamide] | < 0.01 µM | 0.01 to 0.1 µM
Cc1cn2c(Br)c(N)nc(-c3ccc(F)cc3)c2n1 [Compound 206, 5-bromo-8-(4-fluorophenyl)-2-methylimidazo[1,2-a]pyrazin-6-amine] | 0.1 to 1 µM | 0.1 to 1 µM
CC(=O)Nc1cc2nc(C)nn2c(-c2ccc(F)c(F)c2)n1 [Compound 129, N-[5-(3,4-difluorophenyl)-2-methyl-[1,2,4]triazolo[1,5-c]pyrimidin-7-yl]acetamide] | 0.01 to 0.1 µM | > 1 µM
Cc1nc2c(C#N)c(N)nc(-c3ccc(C)o3)n2n1 [Compound 26, 7-amino-2-methyl-5-(5-methylfuran-2-yl)-[1,2,4]triazolo[1,5-c]pyrimidine-8-carbonitrile] | < 0.01 µM | < 0.01 µM
Nc1nc(-c2ccccc2)n2nc(C(F)(F)F)nc2c1Cl [Compound 87, 8-chloro-5-phenyl-2-(trifluoromethyl)-[1,2,4]triazolo[1,5-c]pyrimidin-7-amine] | < 0.01 µM | 0.01 to 0.1 µM
Cc1nc2cc(NC(=O)OC(C)(C)C)nc(-c3ccc(S(C)(=O)=O)cc3)n2n1 [Compound 100, tert-butyl N-[2-methyl-5-(4-methylsulfonylphenyl)-[1,2,4]triazolo[1,5-c]pyrimidin-7-yl]carbamate] | > 1 µM | > 1 µM
Cc1cncc(-c2nc(N)c(Cl)c3nc(C)nn23)c1 [Compound 57, 8-chloro-2-methyl-5-(5-methylpyridin-3-yl)-[1,2,4]triazolo[1,5-c]pyrimidin-7-amine] | > 1 µM | > 1 µM
Cc1nc2c(C)c(N)nc(-c3ccc(C)o3)n2n1 [Compound 22, 2,8-dimethyl-5-(5-methylfuran-2-yl)-[1,2,4]triazolo[1,5-c]pyrimidin-7-amine] | < 0.01 µM | 0.01 to 0.1 µM
Cc1nc2c(C(N)=O)c(N)nc(-c3ccc(C)o3)n2n1 [Compound 32, 7-amino-2-methyl-5-(5-methylfuran-2-yl)-[1,2,4]triazolo[1,5-c]pyrimidine-8-carboxamide] | 0.1 to 1 µM | 0.1 to 1 µM
CC(=O)c1cccc(-c2nc(N)c(Cl)c3nc(C)nn23)c1 [Compound 105, 1-[3-(7-amino-8-chloro-2-methyl-[1,2,4]triazolo[1,5-c]pyrimidin-5-yl)phenyl]ethanone] | 0.01 to 0.1 µM | 0.1 to 1 µM
Cc1ccc(-c2nc(NC(=O)C3CC3)cn3nc(CF)nc23)o1 [Compound 190, N-[2-(fluoromethyl)-8-(5-methylfuran-2-yl)-[1,2,4]triazolo[1,5-a]pyrazin-6-yl]cyclopropanecarboxamide] | < 0.01 µM | < 0.01 µM
CC(=O)Nc1cc2nc(C(C)C)nn2c(-c2cnc(C)o2)n1 [Compound 47, N-[5-(2-methyl-1,3-oxazol-5-yl)-2-propan-2-yl-[1,2,4]triazolo[1,5-c]pyrimidin-7-yl]acetamide] | < 0.01 µM | 0.01 to 0.1 µM
Cc1nc2cc(NC(=O)[C@H]3CCCN3)nc(-c3ccc(C)o3)n2n1 [Compound 17, (2R)-N-[2-methyl-5-(5-methylfuran-2-yl)-[1,2,4]triazolo[1,5-c]pyrimidin-7-yl]pyrrolidine-2-carboxamide] | < 0.01 µM | –
CC(=O)Nc1cc2nc(C)nn2c(-c2cnc(C)o2)n1 [Compound 44, N-[2-methyl-5-(2-methyl-1,3-oxazol-5-yl)-[1,2,4]triazolo[1,5-c]pyrimidin-7-yl]acetamide] | 0.01 to 0.1 µM | 0.01 to 0.1 µM
Cc1ccc(-c2nc(N)cn3ccnc23)o1 [Compound 191, 8-(5-methylfuran-2-yl)imidazo[1,2-a]pyrazin-6-amine] | 0.1 to 1 µM | –
Cc1ccc(-c2nc(NC(=O)C3CC3)cn3cc(C(=O)O)nc23)o1 [Compound 194, 6-(cyclopropanecarbonylamino)-8-(5-methylfuran-2-yl)imidazo[1,2-a]pyrazine-2-carboxylic acid] | > 1 µM | –
CCOC(=O)c1cn2cc(NC(=O)C3CC3)nc(-c3ccc(C)o3)c2n1 [Compound 193, ethyl 6-(cyclopropanecarbonylamino)-8-(5-methylfuran-2-yl)imidazo[1,2-a]pyrazine-2-carboxylate] | 0.01 to 0.1 µM | –
Cc1nc2cc(NC(=O)[C@@H]3CCCN3)nc(-c3ccc(C)o3)n2n1 [Compound 9, (2S)-N-[2-methyl-5-(5-methylfuran-2-yl)-[1,2,4]triazolo[1,5-c]pyrimidin-7-yl]pyrrolidine-2-carboxamide] | 0.01 to 0.1 µM | –

Other lines, results leading:

IC50 [1] | IC50 [2] | SMILES
< 0.01 µM | 0.01 to 0.1 µM | Cc1nc2cc(NC(=O)C3CN(C)C3)nc(-c3ccc(C)o3)n2n1 [Compound 18, 1-methyl-N-[2-methyl-5-(5-methylfuran-2-yl)-[1,2,4]triazolo[1,5-c]pyrimidin-7-yl]azetidine-3-carboxamide]
0.01 to 0.1 µM | 0.01 to 0.1 µM | CCCNC(=O)Nc1cc2nc(C)nn2c(-c2ccco2)n1 [Compound 154, 1-[5-(furan-2-yl)-2-methyl-[1,2,4]triazolo[1,5-c]pyrimidin-7-yl]-3-propylurea]
0.1 to 1 µM | > 1 µM | Cc1nc2cc(NC(=O)C3CC3)nc(-c3cnn(C)c3)n2n1 [Compound 70, N-[2-methyl-5-(1-methylpyrazol-4-yl)-[1,2,4]triazolo[1,5-c]pyrimidin-7-yl]cyclopropanecarboxamide]
< 0.01 µM | < 0.01 µM | CNC(=O)Nc1cc2nc(C)nn2c(-c2ccco2)n1 [Compound 108, 1-[5-(furan-2-yl)-2-methyl-[1,2,4]triazolo[1,5-c]pyrimidin-7-yl]-3-methylurea]
< 0.01 µM | 0.01 to 0.1 µM | Cc1ccc(-c2nc(NC(=O)C3CC3)cc3nc(C4CC4)nn23)o1 [Compound 62, N-[2-cyclopropyl-5-(5-methylfuran-2-yl)-[1,2,4]triazolo[1,5-c]pyrimidin-7-yl]cyclopropanecarboxamide]
< 0.01 µM | < 0.01 µM | O=C(Nc1cc2nc(C(F)(F)F)nn2c(-c2ccco2)n1)C1CC1 [Compound 68, N-[5-(furan-2-yl)-2-(trifluoromethyl)-[1,2,4]triazolo[1,5-c]pyrimidin-7-yl]cyclopropanecarboxamide]
< 0.01 µM | < 0.01 µM | Cc1nc2cc(NC(=O)C3CC3)nc(-c3ccc(F)o3)n2n1 [Compound 85, N-[5-(5-fluorofuran-2-yl)-2-methyl-[1,2,4]triazolo[1,5-c]pyrimidin-7-yl]cyclopropanecarboxamide]
< 0.01 µM | < 0.01 µM | CC(=O)Nc1cc2nc(C(F)F)nn2c(-c2ccco2)n1 [Compound 133, N-[2-(difluoromethyl)-5-(furan-2-yl)-[1,2,4]triazolo[1,5-c]pyrimidin-7-yl]acetamide]
< 0.01 µM | 0.1 to 1 µM | Cc1ccc(-c2nc(NC(=O)C3CC3)cc3nc(C4CCOCC4)nn23)o1 [Compound 54, N-[5-(5-methylfuran-2-yl)-2-(oxan-4-yl)-[1,2,4]triazolo[1,5-c]pyrimidin-7-yl]cyclopropanecarboxamide]
< 0.01 µM | 0.01 to 0.1 µM | Cc1nc2cc(NC(=O)C3CC3)nc(-c3cccc(F)c3)n2n1 [Compound 131, N-[5-(3-fluorophenyl)-2-methyl-[1,2,4]triazolo[1,5-c]pyrimidin-7-yl]cyclopropanecarboxamide]
0.01 to 0.1 µM | 0.1 to 1 µM | Cc1nc2cc(NC(=O)C3CC3)nc(-c3cccc(C#N)c3)n2n1 [Compound 53, N-[5-(3-cyanophenyl)-2-methyl-[1,2,4]triazolo[1,5-c]pyrimidin-7-yl]cyclopropanecarboxamide]
< 0.01 µM | 0.01 to 0.1 µM | Cc1ccc(-c2nc(NC(=O)C3CC3)cc3nc(C4CCOC4)nn23)o1 (stereo not shown) [Compound 50, N-[5-(5-methylfuran-2-yl)-2-(oxolan-3-yl)-[1,2,4]triazolo[1,5-c]pyrimidin-7-yl]cyclopropanecarboxamide]
< 0.01 µM | 0.01 to 0.1 µM | CCc1nc2cc(NC(=O)C3CC3)nc(-c3ccc(C)o3)n2n1 [Compound 8, N-[2-ethyl-5-(5-methylfuran-2-yl)-[1,2,4]triazolo[1,5-c]pyrimidin-7-yl]cyclopropanecarboxamide]
0.01 to 0.1 µM | – | Cc1nc2c(Br)c(NC(=O)C3CC3)nc(-c3ccco3)n2n1 [Compound 31, N-[8-bromo-5-(furan-2-yl)-2-methyl-[1,2,4]triazolo[1,5-c]pyrimidin-7-yl]cyclopropanecarboxamide]
